The compounds below were run against T1, F508del (Homo sapiens, UniProt P13569, DEL508-508) (assay: Protocol 1: membrane potential optical assay (FLIPR III, voltage sensing dye), identification of potentiator compounds). Settings: Table 3, compounds of Table 1.
T1 construct: expressed in transfected cells
Assay type: cell-based
Excerpt: Membrane Potential Optical Methods for Assaying F508del Modulation Properties of Compounds
The assay utilizes fluorescent voltage sensing dyes to measure changes in membrane potential using a fluorescent plate reader (e.g., FLIPR III, Molecular Devices, Inc.) as a readout for increase in functional F508del in NIH 3T3 cells. The driving force for the response is the creation of a chloride ion gradient in conjunction with channel activation by a single liquid addition step after the cells have previously been treated with compounds and subsequently loaded with a voltage sensing dye.
Identification of Potentiator Compounds
To identify potentiators of F508del, a double-addition HTS assay format was developed. This HTS assay utilizes fluorescent voltage sensing dyes to measure changes in membrane potential on the FLIPR III as a measurement for increase in gating (conductance) of F508del in temperature-corrected F508del NIH 3T3 cells. The driving force for the response is a Cl^− ion gradient in conjunction with channel activation with forskolin in a single liquid addition step using a fluorescent plate reader such as FLIPR III after the cells have previously been treated with potentiator compounds (or DMSO vehicle control) and subsequently loaded with a redistribution dye.
Bath Solution #1: (in mM) NaCl 160, KCl 4.5, CaCl2 2, MgCl2 1, HEPES 10, pH 7.4 with NaOH.
Chloride-free bath solution: Chloride salts in Bath Solution #1 (above) are substituted with gluconate salts.
NIH3T3 mouse fibroblasts stably expressing F508del are used for optical measurements of membrane potential. The cells are maintained at 37° C. in 5% CO2 and 90% humidity in Dulbecco's modified Eagle's medium supplemented with 2 mM glutamine, 10% fetal bovine serum, 1×NEAA, β-ME, 1× pen/strep, and 25 mM HEPES in 175 cm^2 culture flasks. For all optical assays, the cells were seeded at ˜20,000/well in 384-well matrigel-coated plates and cultured for 2 hrs at 37° C. before culturing at 27° C. for 24 hrs. for the potentiator assay. For the correction assays, the cells are cultured at 27° C. or 37° C. with and without compounds for 16-24 hours.

T1 sequence (P13569 with tags, fused parts or gaps DEL508-508): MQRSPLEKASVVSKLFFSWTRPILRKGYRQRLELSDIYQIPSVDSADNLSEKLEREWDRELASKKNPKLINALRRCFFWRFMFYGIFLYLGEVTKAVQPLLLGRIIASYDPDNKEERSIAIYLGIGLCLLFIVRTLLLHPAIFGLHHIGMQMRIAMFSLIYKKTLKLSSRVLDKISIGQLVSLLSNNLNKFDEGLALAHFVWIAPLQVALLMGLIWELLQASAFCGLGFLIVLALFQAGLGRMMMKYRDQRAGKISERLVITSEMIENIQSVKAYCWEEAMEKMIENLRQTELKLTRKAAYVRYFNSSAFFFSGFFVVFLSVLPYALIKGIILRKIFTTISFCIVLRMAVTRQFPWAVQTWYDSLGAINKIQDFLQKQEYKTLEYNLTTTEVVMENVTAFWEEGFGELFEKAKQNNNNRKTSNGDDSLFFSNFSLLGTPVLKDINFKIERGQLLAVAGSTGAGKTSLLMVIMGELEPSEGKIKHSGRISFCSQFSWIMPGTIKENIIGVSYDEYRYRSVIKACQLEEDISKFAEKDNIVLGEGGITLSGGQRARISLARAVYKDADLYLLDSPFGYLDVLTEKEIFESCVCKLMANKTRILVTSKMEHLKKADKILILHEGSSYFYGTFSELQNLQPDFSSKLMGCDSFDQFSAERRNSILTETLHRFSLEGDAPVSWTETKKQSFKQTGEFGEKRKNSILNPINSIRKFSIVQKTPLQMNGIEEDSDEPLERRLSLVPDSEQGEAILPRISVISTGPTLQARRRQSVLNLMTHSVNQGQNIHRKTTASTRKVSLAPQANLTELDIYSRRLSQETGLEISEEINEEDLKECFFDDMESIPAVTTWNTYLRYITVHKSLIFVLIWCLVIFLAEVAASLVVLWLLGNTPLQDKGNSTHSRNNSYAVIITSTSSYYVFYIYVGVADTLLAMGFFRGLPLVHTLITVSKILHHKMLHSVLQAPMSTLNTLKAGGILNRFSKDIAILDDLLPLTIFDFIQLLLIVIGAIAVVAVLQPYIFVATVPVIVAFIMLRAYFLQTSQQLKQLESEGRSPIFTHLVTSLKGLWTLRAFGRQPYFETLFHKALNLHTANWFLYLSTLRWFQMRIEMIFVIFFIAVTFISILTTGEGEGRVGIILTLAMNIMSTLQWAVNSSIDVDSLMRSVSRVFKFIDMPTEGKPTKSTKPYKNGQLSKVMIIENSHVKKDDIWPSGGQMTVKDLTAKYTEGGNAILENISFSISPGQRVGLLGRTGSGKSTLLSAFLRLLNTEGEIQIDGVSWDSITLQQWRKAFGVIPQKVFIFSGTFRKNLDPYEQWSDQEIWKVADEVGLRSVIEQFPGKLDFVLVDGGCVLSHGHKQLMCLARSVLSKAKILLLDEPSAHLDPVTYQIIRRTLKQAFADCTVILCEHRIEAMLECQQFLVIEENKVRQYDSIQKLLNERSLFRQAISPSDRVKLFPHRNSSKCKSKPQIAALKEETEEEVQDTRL

EC30	SMILES
++ (“++” means between 3 uM and 10 uM)	Cc1cc(C)c(Oc2nc(-c3ccc(CN4CCOCC4)cc3)ccc2C(=O)NS(=O)(=O)c2cccc(N)n2)c(C)c1 [Compound 810, N-[(6-amino-2-pyridyl)sulfonyl]-6-[4-(morpholinomethyl)phenyl]-2-(2,4,6-trimethylphenoxy)pyridine-3-carboxamide]
++ (“++” means between 3 uM and 10 uM)	Cc1cc(C)c(Oc2nc(-c3cn(C)nc3C(F)(F)F)ccc2C(=O)NS(=O)(=O)c2cccc(N)n2)c(C)c1 [Compound 812, N-[(6-amino-2-pyridyl)sulfonyl]-6-[1-methyl-3-(trifluoromethyl)pyrazol-4-yl]-2-(2,4,6-trimethylphenoxy)pyridine-3-carboxamide]
+++ (“+++” means <3 uM)	CCOc1ccc(-c2ccc(C(=O)NS(=O)(=O)c3cc[nH]n3)c(Oc3ccc(C)cc3C)n2)cc1 [Compound 813, 2-(2,4-dimethylphenoxy)-6-(4-ethoxyphenyl)-N-(1H-pyrazol-3-ylsulfonyl)pyridine-3-carboxamide]
++ (“++” means between 3 uM and 10 uM)	Cc1cc(C)c(Oc2nc(-c3cc(F)cc(F)c3)ccc2C(=O)NS(=O)(=O)c2ccc[nH]c2=O)c(C)c1 [Compound 815, 6-(3,5-difluorophenyl)-N-[(2-oxo-1H-pyridin-3-yl)sulfonyl]-2-(2,4,6-trimethylphenoxy)pyridine-3-carboxamide]
++ (“++” means between 3 uM and 10 uM)	CCc1cnc2c(c1)cc(C(=O)NS(=O)(=O)c1cccc(N)n1)n2Cc1c(C)cc(C)cc1C [Compound 816, N-[(6-amino-2-pyridyl)sulfonyl]-5-ethyl-1-[(2,4,6-trimethylphenyl)methyl]pyrrolo[2,3-b]pyridine-2-carboxamide]
+++ (“+++” means <3 uM)	Cc1cc(C)c(Oc2ncc(-c3ccccc3C)cc2C(=O)NS(=O)(=O)c2cccc(N)n2)c(C)c1 [Compound 817, N-[(6-amino-2-pyridyl)sulfonyl]-5-(o-tolyl)-2-(2,4,6-trimethylphenoxy)pyridine-3-carboxamide]
+++ (“+++” means <3 uM)	Cc1cc(F)ccc1-c1ccc(C(=O)NS(=O)(=O)c2cccc(N)n2)c(N2CC(C)CC2(C)C)n1 (stereo not shown) [Compound 822, N-[(6-amino-2-pyridyl)sulfonyl]-6-(4-fluoro-2-methyl-phenyl)-2-(2,2,4-trimethylpyrrolidin-1-yl)pyridine-3-carboxamide]
+++ (“+++” means <3 uM)	Cc1cc(C)c(Oc2nc(C3(C)CC3)ccc2C(=O)NS(=O)(=O)c2cccc(N)c2)c(C)c1 [Compound 826, N-(3-aminophenyl)sulfonyl-6-(1-methylcyclopropyl)-2-(2,4,6-trimethylphenoxy)pyridine-3-carboxamide]
+++ (“+++” means <3 uM)	COc1cc(OC)cc(-c2ccc(C(=O)NS(=O)(=O)c3cccc(N)n3)c(Oc3c(C)cc(C)cc3C)n2)c1 [Compound 828, N-[(6-amino-2-pyridyl)sulfonyl]-6-(3,5-dimethoxyphenyl)-2-(2,4,6-trimethylphenoxy)pyridine-3-carboxamide]
+++ (“+++” means <3 uM)	CC(C)(C)c1ccc(C(=O)NS(=O)(=O)c2cccc(N)n2)c(Oc2ccc(F)cc2F)n1 [Compound 829, N-[(6-amino-2-pyridyl)sulfonyl]-6-tert-butyl-2-(2,4-difluorophenoxy)pyridine-3-carboxamide]
+++ (“+++” means <3 uM)	COc1cc(F)ccc1-c1ccc(C(=O)NS(=O)(=O)c2cccc(N)n2)c(Oc2c(C)cc(C)cc2C)n1 [Compound 830, N-[(6-amino-2-pyridyl)sulfonyl]-6-(4-fluoro-2-methoxy-phenyl)-2-(2,4,6-trimethylphenoxy)pyridine-3-carboxamide]
+++ (“+++” means <3 uM)	CCc1ccc(-c2ccc(C(=O)NS(=O)(=O)c3ccc[nH]c3=O)c(Oc3c(C)cc(C)cc3C)n2)cc1 [Compound 831, 6-(4-ethylphenyl)-N-[(2-oxo-1H-pyridin-3-yl)sulfonyl]-2-(2,4,6-trimethylphenoxy)pyridine-3-carboxamide]

The remaining lines, values behind:

SMILES	EC30
CC(C)Oc1ccc(-c2ccc(C(=O)NS(=O)(=O)c3cccc(N)n3)c(N3C[C@@H](C)CC3(C)C)n2)cn1 [Compound 811, N-[(6-amino-2-pyridyl)sulfonyl]-6-(6-isopropoxy-3-pyridyl)-2-[(4S)-2,2,4-trimethylpyrrolidin-1-yl]pyridine-3-carboxamide]	+++ (“+++” means <3 uM)
Cc1nc(OC(C)C)ccc1-c1ccc(C(=O)NS(=O)(=O)c2cccc(N)n2)c(N2CC(C)CC2(C)C)n1 (stereo not shown) [Compound 814, N-[(6-amino-2-pyridyl)sulfonyl]-6-(6-isopropoxy-2-methyl-3-pyridyl)-2-(2,2,4-trimethylpyrrolidin-1-yl)pyridine-3-carboxamide]	+++ (“+++” means <3 uM)
CC(C)Oc1ccc(-c2ccc(C(=O)NS(=O)(=O)c3cccc(N)n3)c(N3CCC4(CC3)OCc3ccccc34)n2)cn1 [Compound 818, N-[(6-amino-2-pyridyl)sulfonyl]-6-(6-isopropoxy-3-pyridyl)-2-spiro[1H-isobenzofuran-3,4′-piperidine]-1′-yl-pyridine-3-carboxamide]	+++ (“+++” means <3 uM)
CCOc1ccc(-c2ccc(C(=O)NS(=O)(=O)c3nccnc3N)c(-c3ccc(C)cc3)n2)cc1 [Compound 819, N-(3-aminopyrazin-2-yl)sulfonyl-6-(4-ethoxyphenyl)-2-(p-tolyl)pyridine-3-carboxamide]	+ (“+” means greater than 10 uM)
Cc1ccc(-c2ccc(C(=O)NS(=O)(=O)c3nccnc3N)c(-c3ccc(C)cc3)n2)cc1 [Compound 820, N-(3-aminopyrazin-2-yl)sulfonyl-2,6-bis(p-tolyl)pyridine-3-carboxamide]	+ (“+” means greater than 10 uM)
CNc1cc(S(=O)(=O)NC(=O)c2cc(C(C)(C)C)nn2Cc2c(C)cccc2C)ccn1 [Compound 821, 5-tert-butyl-2-[(2,6-dimethylphenyl)methyl]-N-[[12-(methylamino)-4-pyridyl]sulfonyl]pyrazole-3-carboxamide]	++ (“++” means between 3 uM and 10 uM)
CCc1cccc(S(=O)(=O)NC(=O)c2cc(C(C)(C)C)nn2Cc2c(C)cc(C)cc2C)c1 [Compound 823, 5-tert-butyl-N-(3-ethylphenyl)sulfonyl-2-[(2,4,6-trimethylphenyl)methyl]pyrazole-3-carboxamide]	+ (“+” means greater than 10 uM)
CC(C)COc1cc(F)cc(-c2ccc(C(=O)NS(=O)(=O)c3cccc(N)n3)c(OCC3(C)COC3)n2)c1 [Compound 824, N-[(6-amino-2-pyridyl)sulfonyl]-6-(3-fluoro-5-isobutoxy-phenyl)-2-[(3-methyloxetan-3-yl)methoxy]pyridine-3-carboxamide]	++ (“++” means between 3 uM and 10 uM)
COc1cccnc1S(=O)(=O)NC(=O)C1(C)c2ccccc2CN1Cc1c(C)cc(C)cc1C (stereo not shown) [Compound 825, N-[(3-methoxy-2-pyridyl)sulfonyl]-1-methyl-2-[(2,4,6-trimethylphenyl)methyl]isoindoline-1-carboxamide]	++ (“++” means between 3 uM and 10 uM)
Cc1nc(N(C)CC(C)C)ccc1-c1ccc(C(=O)NS(=O)(=O)c2cccc(N)n2)c(N2CC(C)CC2(C)C)n1 (stereo not shown) [Compound 827, N-[(6-amino-2-pyridyl)sulfonyl]-6-[6-[isobutyl(methyl)amino]-2-methyl-3-pyridyl]-2-(2,2,4-trimethylpyrrolidin-1-yl)pyridine-3-carboxamide]	+++ (“+++” means <3 uM)
